Test results as given in patent publication US20230135758A1, “[…] 1-ALPHA INHIBITORS AND USES THEREOF” (The Regents of the University of California, priority 2020, published 2023).
“Also recorded” adds a separate entry of the source. Where two headings read alike, the source gives them in different places.

How the values were obtained:
[1] = test system: HCT116, H929, and MM1S cells; experiment: Proliferation assay (transient exposure, followed by washout), CellTiter Glo; type: cell-based; settings: for antiproliferative activity after transient exposure and washout: 1 h or 4 h exposure, stringent washout, 72 h compound-free media, HCT116, H929, MM1S
Protocol: 0.6×10^6 cells were seeded in 3 mL complete growth media per well in 6-well plates. […] For adherent cells, growth media was carefully removed, cells were washed with warm PBS twice (2×short wash), and followed by 5 min incubation in warm media at 37° C. (long wash). After repeating the “short-long” washing cycle 3 times, cells were resuspended in warm media and plated in flat-bottom 96-well plates (100 uL/well) at equal cell number. For suspension cells, cells were collected and spun down at 300×g for 3 min. Supernatant was carefully removed, cells were then washed with warm PBS twice (2× short wash), followed by 5 min incubation in warm media at 37° C. (long wash). After repeating the “short-long” washing cycle 3 times, cells were resuspended in warm media and plated in flat-bottom 96-well plates (100 uL/well) at equal cell number. After the indicated times post-washout, CellTiter Glo (Promega, Madison, Wis.) was used to asses the cell viability per the manufacturer's instructions. Briefly, after adding 100 uL CellTiter Glo reagent to each well, the plate was rocked at room temperature for 5-10 min, and luminescence intensity was measured. Proliferation curves were generated by first normalizing luminescence intensity in each well to the average T=0 value for each compound. Normalized luminescence intensity was plotted in GraphPad Prism (triplicate values, mean±SD).

[2] = test system: protein synthesis in HCT116 cells; experiment: Protein synthesis inhibition assay (transient exposure, followed by washout), O-propargyl puromycin incorporation; type: cell-based; settings: 100 nM for 4 h, 24 h compound-free media
Protocol: HCT116 cells at 80% confluency in 24-well plates were incubated with compounds with at 100 nM for 4 hours at 37° C. O-propargyl-puromycin (30 uM final concentration) was then added, and the cells were incubated for 1 hour at 37° C. Media was carefully removed, cells were washed with warm PBS twice (2× short wash), followed by 5 min incubation in warm medium at 37° C. (long wash). After repeating the “short-long” washing cycle for 3 times, cells were then resuspended in warm media and incubated at 37° C. After the indicated time post-washout, media was removed, and cells were trypsinized, collected, and washed twice with ice-cold PBS before transferring to a 96-well V bottom plate. 100 uL Zombie Red (BioLegend, San Diego, Calif.) solution was added to each well and incubated for 30 min at RT in the dark. Cells were then washed with 2% FBS in PBS buffer before fixed with 200 uL of 4% PFA in PBS for 15 min on ice in dark. After washing the cells with 2% FBS in PBS buffer, 200 uL permeabilization buffer (3% FBS, 0.1% Saponin in PBS) was added to each well, and cells were incubated for 5 min at RT in the dark. Cells were then washed and resuspended in 25 uL permeabilization buffer. 100 uL click chemistry mix (50 mM HEPES pH=7.5, 150 mM NaCl, 400 uM TCEP, 250 uM TBTA, 5 uM CF405M-Azide (Biotium, Fremont, Calif.), 200 uM Cu2SO4) was added to each well, and cells were incubated at RT in dark. After the overnight incubation, cells were washed with permeabilization buffer followed by FACS buffer (2% FBS, 1% P/S, 2 mM EDTA, in PBS w/o Ca/Mg). Cells were then resuspended in 200 uL FACS buffer and filtered before FACS analysis (FACSCanto II, Becton Dickinson, Franklin Lakes, N.J.). Only single, live cells were analyzed (FlowJo), as judged by forward/side scattering and the absence of Zombie Red staining. Protein synthesis inhibition curves were generated by first normalizing intensity to the cycloheximide-treated (50 μg/mL for 1 h, maximum inhibition) and DMSO-treated control samples. Normalized intensity was plotted in GraphPad Prism.

[3] = test system: HCT116, H929, and MM1S cells; experiment: Proliferation assay (continuous exposure), 72 h, Alamar Blue; type: cell-based; settings: 72 h continuous
Protocol: To assess in vitro anticancer activity, HCT116, H929, and MM1S cells were treated continuously for 72 hours with increasing concentrations of (S,S)-A3, (S,R)-A3, or dA3 (cyclic peptide 4 (Carelli, Taunton, et al., eLife, 2015), here termed “dA3” (deoxy-A3)). Cell viability was then assessed using the Alamar Blue assay.

Eμ-Myc/+ lymphoma cells = experiment: Eμ-Myc mouse lymphoma model; type: in vivo
Protocol: Mouse studies were approved by the University of California, San Francisco Institutional Animal Care and Use Committee (IACUC). Eμ-Myc/+ mice were purchased from the Jackson Laboratory. For the Eμ-Myc tumor model, allograft mice were generated using spontaneous lymph node tumors derived from Eμ-Myc mice. 5×10^5 Eμ-Myc/+ lymphoma cells were injected via the tail vein into eight-week-old male C57BL/6J mice. Seven days after lymphoma cell injection, mice were randomized to receive vehicle (10% EtOH/Kolliphor EL in water, n=5 mice) or (S,R)-A3 (n=5 mice) by intraperitoneal injection every other day (3 times per week) until the endpoint based on the IACUC-approved protocol. Eμ-Myc mice in the (S,R)-A3 treatment arm received (S,R)-A3 at a dose of 2 mg/kg for the first 21 days and 1-2 mg/kg after treatment day 21 according to their body weights (BW): BW>26 g, 2 mg/kg; BW 25-26 g, 1.5 mg/kg; BW 24-25 g, 1 mg/kg).
We next tested the effect of (S,R)-A3 in a preclinical mouse model of B-cell lymphoma using an intermittent dosing regimen (QOD×3, every other day, 3 doses per week via intraperitoneal injection). Eμ-Myc/+ mice are a well-characterized mouse lymphoma model that overexpress MYC under the transcriptional control of the IgH enhancer element. These mice recapitulate the genetic lesion underlying Burkitt's Lymphoma. Eμ-Myc/+ lymphoma cells were injected via the tail vein into eight-week-old male C57BL/6J mice. Seven days after lymphoma cell injection, mice were randomized to receive vehicle or (S,R)-A3 by intraperitoneal injection (QOD×3, n=5 mice/treatment arm).

[4] = test system: eEF1A-mutant (A399V) HCT116 cells; settings: read-out: IC50, cell proliferation in eEF1A-mutant (A399V) cells; 72 h; AlamarBlue
Protocol: Cell proliferation (% DMSO control) was quantified using AlamarBlue. […] Data points (% DMSO control) are mean values±SD (n=3).
Adherent cells were briefly trypsinized and repeatedly pipetted to produce a homogeneous cell suspension. 2,500 cells were seeded in 100 uL complete growth media per well in 96-well clear-bottom plates. Suspension cells were repeatedly pipetted to produce a homogeneous cell suspension. 10,000 cells were seeded in 100 uL complete growth media per well in 96-well clear-bottom plates. After allowing cells to grow/adhere overnight, cells were treated with 25 uL/well 5×drug stocks (0.1% DMSO final) and incubated for 72 hr. AlamarBlue (Life Technologies, Grand Island, N.Y.) was used to assess cell viability per the manufacturer's instructions. Briefly, 12.5 uL alamarBlue reagent was added to each well, and plates were incubated at 37° C. Fluorescence intensity was measured every 30 min to determine the linear range for each assay (Ex 545 nm, Em 590 nm, SPARK, Tecan Austria GmbH, Austria). Proliferation curves were generated by first normalizing fluorescence intensity in each well to the DMSO-treated plate average. Normalized fluorescence intensities were plotted in GraphPad Prism (GraphPad, La Jolla, Calif.), and IC50 values calculated from nonlinear regression curves. The reported IC50 values represent the average of at least three independent determinations (±SD).

[5] = test system: protein synthesis in HCT116 cells; experiment: Protein synthesis inhibition assay (continuous exposure), O-propargyl puromycin incorporation; type: cell-based; settings: 24 h treatment, 1 h OPP pulse, read-out: IC50, rate of protein synthesis
Protocol: HCT116 cells at 80% confluency in 12-well plates were incubated with compounds with varying concentrations for 10 min or 24 hours at 37° C. After the indicated time, O-propargyl-puromycin (30 μM final concentration) was added, and the cells were incubated for 1 hour at 37° C. Subsequently, media was removed, and cells were trypsinized, collected, and washed twice with ice-cold PBS before transferring to a 96-well V bottom plate. 100 uL Zombie Red (BioLegend, San Diego, Calif.) solution was added to each well and incubated for 30 min at RT in dark. Cells were then washed with 2% FBS in PBS buffer before fixed with 200 uL of 4% PFA in PBS for 15 min on ice in dark. After washing the cells with 2% FBS in PBS buffer, 200 uL permeabilization buffer (3% FBS, 0.1% saponin in PBS) was added to each well, and the cells were incubated for 5 min at RT in the dark. Cells were then washed and resuspended in 25 uL permeabilization buffer. 100 uL click chemistry mix (50 mM HEPES pH=7.5, 150 mM NaCl, 400 uM TCEP, 250 uM TBTA, 5 uM CF405M-Azide (Biotium, Fremont, Calif.), 200 uM Cu2SO4) was added to each well, and cells were incubated at RT in the dark. […] Only single, live cells were analyzed (FlowJo), as judged by forward/side scattering and the absence of Zombie Red staining. […]

FIG. 14 [6] = experiment: FIG. 14
Protocol: (§1) Table printed on a drawing sheet, FIG. 14
(§2) The patent's description of the figure: FIG. 14. SRA3 pharmacokinetic data. PK studies were performed in C57BL/6 mice
First reader's note: IP route is given in the head cell of the first column; the plot legend on the same sheet prints IP 2 mg/kg in mouse.

FIG. 14 [7] = experiment: FIG. 14; remark: listed apart in the source
Protocol: as §1, §2
First reader's note: IV route is given in the head cell of the first column; the plot legend on the same sheet prints IV 2 mg/kg in mouse.

HCT116 cells = experiment: Cell viability, Alamar Blue, 24 h treatment; type: cell-based; settings: relative to DMSO controls
Protocol: 5,000 HCT116 cells were seeded in 100 μL complete growth media per well in 96-well plates.

[8] = target: eEF1A (Elongation Factor 1-alpha), wild type (UniProt P68104); experiment: cell-based or functional assay
Sequence of eEF1A (Elongation Factor 1-alpha), wild type (P68104 2-462): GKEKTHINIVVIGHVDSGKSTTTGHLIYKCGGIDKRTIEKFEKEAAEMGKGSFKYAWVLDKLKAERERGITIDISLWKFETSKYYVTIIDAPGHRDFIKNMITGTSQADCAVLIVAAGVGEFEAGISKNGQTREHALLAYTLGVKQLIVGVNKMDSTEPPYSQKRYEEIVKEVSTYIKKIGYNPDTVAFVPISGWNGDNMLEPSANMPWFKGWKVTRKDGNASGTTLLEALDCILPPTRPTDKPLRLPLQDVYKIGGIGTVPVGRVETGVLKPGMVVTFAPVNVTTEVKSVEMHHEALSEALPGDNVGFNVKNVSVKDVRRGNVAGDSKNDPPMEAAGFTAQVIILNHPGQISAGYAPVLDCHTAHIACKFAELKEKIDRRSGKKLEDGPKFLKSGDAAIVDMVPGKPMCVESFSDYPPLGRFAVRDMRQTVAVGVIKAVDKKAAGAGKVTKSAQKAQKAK

[9] = C57BL/6, mouse, in vivo, ip, 2 mg/kg
[10] = C57BL/6, mouse, in vivo, iv, 2 mg/kg

## C=C[C@H](C)C[C@@H]1NC(=O)[C@H]([C@H](O)C(C)C)N(C)C(=O)[C@H](C)N(C)C(=O)[C@@H]([C@@H](C)CC)NC(=O)[C@@H]([C@H](O)C(C)C)NC(=O)[C@H]2CCCCN2C(=O)[C@H](C)N(C)C1=O [(S,R)-A3]
[1]
  antiproliferative activity after transient exposure and washout: profound and sustained loss of cell viability; also recorded: strong antiproliferative activity
[2]
  recovery of protein synthesis after washout: sustained, washout-resistant manner
[3]
  reduction of cell viability, continuous treatment: low nanomolar concentrations
Eμ-Myc/+ lymphoma cells; 2 mg/kg (1-2 mg/kg after day 21) intraperitoneal, QOD×3
  maximum BW loss: < 8%
Eμ-Myc/+ lymphoma cells; 2 mg/kg (1-2 mg/kg after day 21) intraperitoneal, QOD×3, P=0.0027
  survival: significantly improved survival
Eμ-Myc/+ lymphoma cells; 2 mg/kg (1-2 mg/kg after day 21) intraperitoneal, QOD×3, start 7 days after cell injection
  tumor growth: reduced tumor growth
Eμ-Myc/+ lymphoma cells; Eμ-Myc mouse model of B-cell lymphoma
  efficacy in mouse lymphoma model: efficacious

## C=C[C@H](C)C[C@@H]1NC(=O)[C@H]([C@@H](O)C(C)C)N(C)C(=O)[C@H](C)N(C)C(=O)[C@@H]([C@@H](C)CC)NC(=O)[C@@H]([C@H](O)C(C)C)NC(=O)[C@H]2CCCCN2C(=O)[C@H](C)N(C)C1=O [(S,S)-A3]
[1]
  antiproliferative activity after transient exposure and washout: less efficacious
[2]
  recovery of protein synthesis after washout: partially recovered
[3]
  reduction of cell viability, continuous treatment: low nanomolar concentrations

## C=C[C@H](C)C[C@@H]1NC(=O)[C@H]([C@H](O)C(C)C)N(C)C(=O)[C@H](C)N(C)C(=O)[C@@H]([C@@H](C)CC)NC(=O)[C@@H]([C@H](O)C(C)C)NC(=O)[C@H]2CCCCN2C(=O)[C@H](C)N(C)C1=O [SR-A3]
[4]
  IC50: > 1000 nM
[1]; HCT116, 100 nM for 4 h, rigorous washout, 72-h washout period
  cell proliferation after washout: nearly abolished
[2]
  recovery of protein synthesis after washout: sustained inhibition
[5]
  IC50: ~20 nM

## C=C[C@H](C)C[C@@H]1NC(=O)[C@H]([C@H](O)C(C)C)N(C)C(=O)[C@H](C)N(C)C(=O)[C@@H]([C@@H](C)CC)NC(=O)[C@@H]([C@H](O)C(C)C)NC(=O)[C@H]2CCCCN2C(=O)[C@H](C)N(C)C1=O [SRA3]
FIG. 14 [6]
  AUCInf: 384 ng·h/mL
  AUCInf/D: 192 kg·ng·h/mL/mg
  AUClast: 347 ng·h/mL
  F (%): 97.2%
  tmax: 0.583 h
FIG. 14 [6]; [9]
  Cmax: 86.6 ng/mL
  MRT: 8.63 h
  half-life: 8.21 h
FIG. 14 [7]
  AUCInf: 395 ng·h/mL
  AUClast: 367 ng·h/mL
  CL: 87.2 mL/min/kg
  Vss: 42.0 L/kg
  Vz: 52.7 L/kg
FIG. 14 [7]; [10]
  C0: 204 ng/mL
  MRT: 7.97 h
  half-life: 6.79 h

## C=C[C@H](C)C[C@@H]1NC(=O)[C@H]([C@H](O)C(C)C)N(C)C(=O)[C@H](C)N(C)C(=O)[C@@H]([C@H](C)CC)NC(=O)[C@@H]([C@H](O)C(C)C)NC(=O)[C@H]2CCCCN2C(=O)[C@H](C)N(C)C1=O [WHY3179]
HCT116 cells
  IC50: 6.3 nM

## C=C[C@H](C)C[C@@H]1NC(=O)[C@H]([C@H](O)C(C)C)N(C)C(=O)[C@H](C)N(C)C(=O)[C@@H]([C@@H](C)CC)NC(=O)[C@@H]([C@H](O)C2CC2)NC(=O)[C@H]2CCCCN2C(=O)[C@H](C)N(C)C1=O [WHY4014]
HCT116 cells
  IC50: 14.8 nM

## ternatin-4 (peptide)
[8]
  cell proliferation rate after transient exposure (100 nM, 4 h) and washout, HCT116 cells, % of DMSO control (% of DMSO control): 50
  protein synthesis rate 24 h after washout (100 nM for 4 h), HCT116 cells, % of DMSO control (% of DMSO control): 30
  rate of protein synthesis (OPP incorporation), HCT116 cells, 10 min treatment; potency relative to SR-A3: 10 fold
